Type in all cases: biochemical
One test deals with T1, TRKB (Homo sapiens, UniProt Q16620).
T1 construct: purchased SignalChem N17-11G
Nature of the test: Determination of inhibitory activity against TRKB kinase (ADP-Glo Kinase Assay). As to conditions: ATP 20 μM, Poly (4:1 Glu, Tyr) Peptide 0.03 mg/ml. On the procedure: (§1) Assay: Determination of Inhibitory Activity Against TRKA/B/C Kinases
(§2) 1× volume of 5× kinase reaction buffer and 4× volume of water; 5 mM MgCl2; and 1 mM DTT.
(§3) • 1). Gradiently diluting a compound 4-fold in a dilution plate with DMSO, with a starting compound concentration of 1000 nM. • 2). Diluting the compound 50-fold into 1× kinase reaction buffer and shaking it on a shaker for 20 minutes. • 3). Formulating 2× kinase with 1× of enzyme reaction buffer. • 4). Adding 2 μl kinase (formulated in step 3) to each well of the reaction plate. • 5). Adding 1 μl of the compound diluted in buffer to each well, sealing the plate with a sealing membrane and centrifuging the plate at 1000 g for 30 seconds and leaving it at room temperature for 10 minutes. • 6). Formulating 4×ATP & sub mixture with 1× enzyme reaction buffer and adding 1 μl of 4×ATP & sub mixture to the reaction plate. • 7). Sealing the plate with a sealing membrane and centrifuging the plate at 1000 g for 30 seconds and allowing it to react at room temperature for 60 minutes. • 8). Transferring 4 μl of ADP-Glo to 384 reaction plate and centrifuging the plate at 1000 rpm/min for 1 min, and then incubating it at 25° C. for 40 min. • 9). Transferring 8 μl of Detection solution to 384 reaction plate and centrifuging the plate at 1000 rpm/min for 1 min and incubating it at 25° C. for 40 min. • 10) Reading the RLU (Relative luminescence unit) signal using a Biotek multifunctional plate reader. The signal intensity was used to characterize the activity degree of kinase.
(§4) The IC50 (half inhibition concentration) of a compound was obtained using the following non-linear fitting equation, wherein data analysis was performed using Graphpad 6.0 software.
(§5) Y=Bottom+(Top−Bottom)/(1+10^((Log IC50−X)*Hill Slope)) • X: log value of compound concentration; and Y: inhibition rate (% inhibition)
(§6) Data were exported from Biotek and analyzed manually. The ratios were converted to inhibition rates and IC50 was calculated by Prism GraphPad 6.0 from the inhibition rates. IC50 was calculated again by the ratios to verify accuracy of the results.

Another test has as its target T2, TRKA (Homo sapiens, UniProt P04629).
T2 construct: purchased Carna 08-186
The test is described as follows: Determination of inhibitory activity against TRKA kinase (ADP-Glo Kinase Assay). To be noted: ATP 5 μM, Poly (4:1 Glu, Tyr) Peptide 0.03 mg/ml. The procedure: as §1, §2, §3, §4, §5, §6

The next test addresses T3, TRKC (Homo sapiens, UniProt Q16288).
T3 construct: purchased Carna 08-196
Nature of the test: Determination of inhibitory activity against TRKC kinase (ADP-Glo Kinase Assay). As to conditions: ATP 5 μM, Poly (4:1 Glu, Tyr) Peptide 0.03 mg/ml. The procedure:
as §1, §2, §3, §4, §5, §6
(In general: ADP-Glo turns the ADP formed in a reaction into a luminescent signal.)

This note sets out measurements from patent US20240317760A1, “TRK KINASE INHIBITOR COMPOUND AND USE THEREOF” (HENAN MEDINNO PHARMACEUTICAL TECHNOLOGY CO., LTD., priority 2021, published 2024).

T2 sequence (P04629 33-796): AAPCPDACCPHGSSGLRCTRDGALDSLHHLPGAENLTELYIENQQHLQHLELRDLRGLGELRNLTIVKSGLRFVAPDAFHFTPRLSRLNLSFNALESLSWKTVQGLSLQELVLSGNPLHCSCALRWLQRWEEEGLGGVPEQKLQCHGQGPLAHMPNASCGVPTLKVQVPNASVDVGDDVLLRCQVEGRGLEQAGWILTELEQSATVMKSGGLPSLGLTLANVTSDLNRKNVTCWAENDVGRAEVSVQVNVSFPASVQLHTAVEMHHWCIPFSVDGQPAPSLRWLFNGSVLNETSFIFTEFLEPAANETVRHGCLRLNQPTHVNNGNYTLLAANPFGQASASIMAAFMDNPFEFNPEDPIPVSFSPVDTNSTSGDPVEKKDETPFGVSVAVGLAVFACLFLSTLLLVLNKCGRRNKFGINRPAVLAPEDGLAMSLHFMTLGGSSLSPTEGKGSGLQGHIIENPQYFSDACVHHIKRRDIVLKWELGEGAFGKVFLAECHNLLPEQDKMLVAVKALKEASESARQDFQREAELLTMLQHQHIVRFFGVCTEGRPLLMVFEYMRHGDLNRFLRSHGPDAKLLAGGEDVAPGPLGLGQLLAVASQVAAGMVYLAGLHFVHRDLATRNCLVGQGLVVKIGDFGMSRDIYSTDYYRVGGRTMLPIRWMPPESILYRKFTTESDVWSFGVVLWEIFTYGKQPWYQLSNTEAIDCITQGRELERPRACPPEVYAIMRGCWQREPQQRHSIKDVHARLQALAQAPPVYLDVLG
T3 sequence (Q16288 32-839): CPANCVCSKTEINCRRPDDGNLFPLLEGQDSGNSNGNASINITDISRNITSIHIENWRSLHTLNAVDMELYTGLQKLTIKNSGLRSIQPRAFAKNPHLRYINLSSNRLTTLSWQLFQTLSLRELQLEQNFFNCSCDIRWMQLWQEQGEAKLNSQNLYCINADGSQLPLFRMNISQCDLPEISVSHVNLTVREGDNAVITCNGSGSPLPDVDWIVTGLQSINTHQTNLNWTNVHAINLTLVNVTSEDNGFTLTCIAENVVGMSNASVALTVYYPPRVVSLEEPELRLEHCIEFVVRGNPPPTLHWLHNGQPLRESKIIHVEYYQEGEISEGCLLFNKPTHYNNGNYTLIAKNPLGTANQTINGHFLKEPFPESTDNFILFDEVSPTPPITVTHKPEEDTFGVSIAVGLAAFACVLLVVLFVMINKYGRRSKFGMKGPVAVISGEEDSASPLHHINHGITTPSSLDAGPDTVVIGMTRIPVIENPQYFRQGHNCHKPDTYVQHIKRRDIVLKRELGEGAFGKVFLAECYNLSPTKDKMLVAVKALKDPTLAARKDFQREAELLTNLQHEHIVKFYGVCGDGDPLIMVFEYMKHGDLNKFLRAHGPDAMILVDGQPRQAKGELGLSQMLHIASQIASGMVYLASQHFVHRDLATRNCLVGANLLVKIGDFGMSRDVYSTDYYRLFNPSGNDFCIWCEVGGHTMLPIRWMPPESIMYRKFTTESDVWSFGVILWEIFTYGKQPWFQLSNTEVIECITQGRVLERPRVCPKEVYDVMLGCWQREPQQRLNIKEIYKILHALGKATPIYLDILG
T1 sequence (Q16620 32-822): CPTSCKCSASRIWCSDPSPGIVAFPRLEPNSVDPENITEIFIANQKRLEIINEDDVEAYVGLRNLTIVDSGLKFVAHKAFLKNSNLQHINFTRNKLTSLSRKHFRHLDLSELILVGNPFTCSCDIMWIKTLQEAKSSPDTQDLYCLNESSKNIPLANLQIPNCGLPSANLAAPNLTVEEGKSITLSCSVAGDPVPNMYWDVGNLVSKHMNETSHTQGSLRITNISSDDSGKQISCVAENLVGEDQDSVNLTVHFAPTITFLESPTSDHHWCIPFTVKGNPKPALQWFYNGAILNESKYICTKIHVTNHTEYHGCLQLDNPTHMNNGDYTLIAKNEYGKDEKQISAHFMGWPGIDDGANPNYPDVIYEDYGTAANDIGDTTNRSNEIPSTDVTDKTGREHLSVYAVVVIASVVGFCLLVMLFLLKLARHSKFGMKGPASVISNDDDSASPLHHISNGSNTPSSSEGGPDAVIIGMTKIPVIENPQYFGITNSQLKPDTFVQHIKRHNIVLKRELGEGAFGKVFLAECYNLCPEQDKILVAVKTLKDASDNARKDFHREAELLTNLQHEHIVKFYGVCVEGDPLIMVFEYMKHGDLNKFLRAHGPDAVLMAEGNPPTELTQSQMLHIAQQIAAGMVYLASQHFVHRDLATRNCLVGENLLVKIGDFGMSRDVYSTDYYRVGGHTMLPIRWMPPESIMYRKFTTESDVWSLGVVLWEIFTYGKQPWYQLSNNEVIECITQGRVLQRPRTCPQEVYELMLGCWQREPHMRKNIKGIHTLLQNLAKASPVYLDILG

For the compound `CC(Nc1ccc2[nH]nc(-c3nc4c([nH]3)CNC4)c2c1)c1cc(F)cc(F)c1` (stereo not drawn) [Example 1], the IC50 (as a rule, the concentration that gives 50% inhibition) against TRKB was determined as 2.8 nM; against TRKA, 1.8 nM; on TRKC, 5.5 nM.

As for `Fc1cc(F)cc(CNc2ccc3[nH]nc(-c4nc5c([nH]4)CN(CC4CCNCC4)C5)c3c2)c1` [Example 2, N-(3,5-difluorobenzyl)-3-(5-(piperidin-4-ylmethyl)-1,4,5,6-tetrahydropyrrolo[3,4-d]imidazol-2-yl)-1H-indazol-5-amine], the figures for the IC50 against TRKB, at TRKA and on TRKC were 3.4 nM, 3.5 nM and 3.3 nM, respectively.

For the compound `CS(=O)(=O)N1Cc2nc(-c3n[nH]c4ccc(Cc5cc(F)cc(F)c5)cc34)[nH]c2C1` [Example 3, 5-(3,5-difluorobenzyl)-3-(5-(methylsulfonyl)-1,4,5,6-tetrahydropyrrolo[3,4-d]imidazol-2-yl)-1H-indazole], the IC50 at TRKB worked out at 5.5 nM; at TRKA, 6.4 nM; against TRKC, 11 nM.

Take `CC(Oc1ccc2[nH]nc(-c3nc4c([nH]3)CN(C3CCN(C)CC3)C4)c2c1)c1cc(F)cc(F)c1` (stereo not drawn) [Example 4, 5-(1-(3,5-difluorophenyl)ethoxy)-3-(5-(1-methylpiperidin-4-yl)-1,4,5,6-tetrahydropyrrolo[3,4-d]imidazol-2-yl)-1H-indazole]: the figures for the IC50 against TRKB, on TRKA and at TRKC were 2.4 nM, 2 nM and 3.1 nM, respectively.

In the case of `CC(Oc1ccc2[nH]nc(-c3nc4c([nH]3)CN(C(=O)N(C)C)C4)c2c1)c1cc(F)cc(F)c1` (stereo not drawn) [Example 5, 2-(5-(1-(3,5-difluorophenyl)ethoxy)-1H-indazol-3-yl)-N,N-dimethyl-4,6-dihydropyrrolo[3,4-d]imidazole-5(1H) formamide], the IC50 was determined as 2.1 nM against TRKB, 2.3 nM against TRKA and 3.1 nM at TRKC.

Consider `CC(Oc1ccc2[nH]nc(-c3nc4c([nH]3)CN(C(=O)OCCN(C)C)C4)c2c1)c1cc(F)cc(F)c1` (stereo not drawn) [Example 6, 2-(Dimethylamino)ethyl 2-(5-(1-(3,5-difluorophenyl)ethoxy)-1H-indazol-3-yl)-4,6-dihydropyrrolo[3,4-d]imidazole-5(1H)-carboxylate], for which the IC50 against TRKB was found to be 3.2 nM; against TRKA, 0.97 nM; at TRKC, 1.4 nM.

Take `CC(Oc1ccc2[nH]nc(-c3nc4c([nH]3)CN(C(=O)C3CCN(C)CC3)C4)c2c1)c1cc(F)cc(F)c1` (stereo not drawn) [Example 7, (2-(5-(1-(3,5-difluorophenyl)ethoxy)-1H-indazol-3-yl)-4,6-dihydropyrrolo[3,4-d]imidazol-5(1H)-yl)(1-methylpiperidin-4-yl)ketone]: the IC50 against TRKB was 3.4 nM; at TRKA, 1.4 nM; on TRKC, 1.3 nM.

Consider `CC(Oc1ccc2[nH]nc(-c3nc4c([nH]3)CN(C3CCN(C)CC3)CC4)c2c1)c1cc(F)cc(F)c1` (stereo not drawn) [Example 8, 2-(5-(1-(3,5-difluorophenyl)ethoxy)-1H-indazol-3-yl)-5-(1-methylpiperidin-4-yl)-4,5,6,7-tetrahydro-3H-imidazo[4,5-c]pyridine], for which the IC50 came out at 2.8 nM against TRKB, 0.7 nM on TRKA and 1.6 nM against TRKC.

`C[C@H](Oc1ccc2[nH]nc(-c3nc4c([nH]3)CN(CC3CCN(C)CC3)C4)c2c1)c1cc(F)cc(F)c1` [Example 9]: the IC50 on TRKB came out at 28 nM; against TRKA, 1.7 nM; against TRKC it was 4.6 nM.

As to `CC(Oc1ccc2[nH]nc(-c3nc4c([nH]3)CN(C(=O)OC3CCN(C)CC3)C4)c2c1)c1cc(F)cc(F)c1` (stereo not drawn) [Example 10, 1-Methylpiperidin-4-yl-2-(5-(1-(3,5-difluorophenyl)ethoxy)-1H-indazol-3-yl)-4,6-dihydropyrrolo[3,4-d]imidazole-5(1H)-carboxylate], the IC50 was 2.5 nM at TRKB, 0.77 nM on TRKA and 1.3 nM against TRKC.

In the case of `CC(Nc1ccc2[nH]nc(-c3nc4c([nH]3)CN(CC3CCNCC3)C4)c2c1)c1cc(F)cc(F)c1` (stereo not drawn) [Example 11, N-(1-(3,5-difluorophenyl)ethyl)-3-(5-(piperidin-4-ylmethyl)-1,4,5,6-tetrahydropyrrolo[3,4-d]imidazol-2-yl)-1H-indazol-5-amine], the IC50 at TRKB came out at 2.2 nM; on TRKA, 1.4 nM; at TRKC, 2.4 nM.

For `O=C(C1CC1)N1Cc2nc(-c3n[nH]c4ccc(Cc5cc(F)cc(F)c5)cc34)[nH]c2C1` [Example 13, Cyclopropyl(2-(5-(3,5-difluorobenzyl)-1H-indazol-3-yl)-4,6-dihydropyrrolo [3,4-d]imidazol-5(1H)-yl)ketone], the figures for the IC50 against TRKB, against TRKA and against TRKC were 4.4 nM, 6.9 nM and 9.2 nM, respectively.

On to `CN1CCC(N2Cc3nc(-c4n[nH]c5ccc(Cc6cc(F)cc(F)c6)cc45)[nH]c3C2)CC1` [Example 14, 5-(3,5-Difluorobenzyl)-3-(5-(1-methylpiperidin-4-yl)-1,4,5,6-tetrahydropyrrolo[3,4-d]imidazol-2-yl)-1H-indazole], for which the IC50 against TRKB was found to be 9.5 nM; against TRKA, 3.5 nM; at TRKC, 11.5 nM.

Take `CC(Oc1ccc2[nH]nc(-c3nc4c([nH]3)CN(CC3CCN(C)CC3)C4)c2c1)c1cc(F)cc(F)c1` (stereo not drawn) [Example 15]: the IC50 is 0.65 nM against TRKB, 0.75 nM against TRKA and 0.86 nM against TRKC.

`CC(Oc1ccc2[nH]nc(-c3nc4c([nH]3)CN(CC3CCNCC3)C4)c2c1)c1cc(F)cc(F)c1` (stereo not drawn) [Example 16, 5-(1-(3,5-Difluorophenyl)ethoxy)-3-(5-(piperidin-4-ylmethyl)-1,4,5,6-tetrahydropyrrolo[3,4-d]imidazol-2-yl)-1H-indazole]: the IC50 is 1.9 nM on TRKB, 1.3 nM against TRKA and 1.8 nM on TRKC.

With `CCN1CCC(CN2Cc3nc(-c4n[nH]c5ccc(OC(C)c6cc(F)cc(F)c6)cc45)[nH]c3C2)CC1` (stereo not drawn) [Example 17], the results for the IC50 against TRKB, at TRKA and against TRKC were 4.2 nM, 0.66 nM and 1.5 nM, respectively.

In the case of `CC(Oc1ccc2[nH]nc(-c3nc4c([nH]3)CN(CCN(C)C)C4)c2c1)c1cc(F)cc(F)c1` (stereo not drawn) [Example 18, 2-(2-(5-(1-(3,5-Difluorophenyl)ethoxy)-1H-indazol-3-yl)-4,6-dihydropyrrolo[3,4-d]imidazol-5(1H)-yl)-N,N-dimethyl ethan-1-amine], the IC50 on TRKB stood at 1.1 nM; at TRKA it was 0.8 nM; at TRKC, 1.5 nM.

On to `CC(=O)N1CCC(CN2Cc3nc(-c4n[nH]c5ccc(OC(C)c6cc(F)cc(F)c6)cc45)[nH]c3C2)CC1` (stereo not drawn) [Example 19, 1-(4-((2-(5-(1-(3,5-Difluorophenyl)ethoxy)-1H-indazol-3-yl)-4,6-dihydropyrrolo[3,4-d]imidazol-5(1H)-yl)methyl)piperidin-1-yl)ethan-1-one], for which the IC50 at TRKB was determined as 4.8 nM; against TRKA, 1.2 nM; against TRKC, 4.1 nM.

Consider `CC(Oc1ccc2[nH]nc(-c3nc4c([nH]3)CN(CC3CCN(C)C3)C4)c2c1)c1cc(F)cc(F)c1` (stereo not drawn) [Example 20], for which the IC50 at TRKB is 4 nM; at TRKA it was 1.5 nM; at TRKC, 2.9 nM.

Turning to `CC(Oc1ccc2[nH]nc(-c3nc4c([nH]3)CN(CCC3CCN(C)CC3)C4)c2c1)c1cc(F)cc(F)c1` (stereo not drawn) [Example 21, 5-(1-(3,5-Difluorophenyl)ethoxy)-3-(5-(2-(1-methylpiperidin-4-yl)ethyl)-1,4,5,6-tetrahydropyrrolo[3,4-d]imidazol-2-yl)-1H-indazole], the results for the IC50 against TRKB, on TRKA and on TRKC were 6.8 nM, 1.8 nM and 2.5 nM, respectively.

For the compound `CC(Oc1ccc2[nH]nc(-c3nc4c([nH]3)CN(CC3CCN(C(C)C)CC3)C4)c2c1)c1cc(F)cc(F)c1` (stereo not drawn) [Example 22], the IC50 at TRKB was 0.82 nM; against TRKA it was 0.47 nM; against TRKC, 0.51 nM.

Consider `CC(Oc1ccc2[nH]nc(-c3nc4c([nH]3)CN(C(C)C3CCN(C)CC3)C4)c2c1)c1cc(F)cc(F)c1` (stereo not drawn) [Example 23, 5-(1-(3,5-Difluorophenyl)ethoxy)-3-(5-(1-(1-methylpiperidin-4-yl)ethyl)-1,4,5,6-tetrahydropyrrolo[3,4-d]imidazol-2-yl)-1H-indazole], for which the values for the IC50 against TRKB, at TRKA and at TRKC were 1.5 nM, 0.59 nM and 1.1 nM, respectively.

As for `CC(Oc1ccc2[nH]nc(-c3nc4c([nH]3)CN(CC3CCCNC3)C4)c2c1)c1cc(F)cc(F)c1` (stereo not drawn) [Example 24, 5-(1-(3,5-Difluorophenyl)ethoxy)-3-(5-(piperidin-3-ylmethyl)-1,4,5,6-tetrahydropyrrolo[3,4-d]imidazol-2-yl)-1H-indazole], the 50% inhibitory concentration (IC50) worked out at 5.3 nM at TRKB, 1.5 nM at TRKA and 2.2 nM at TRKC.
